Reference: ChEMBL document CHEMBL1126747, “Multiple copy simultaneous search and construction of ligands in binding sites: application to inhibitors of HIV-1 aspartic proteinase” (J Med Chem, 1993)
Starred links: 1 amine or outer side, 2 acyl side, 3 side chain; linkers in the order of their positions; H or OH if unused. Non-standard residues stand in square brackets, D forms with d. Residues, ends and D or L forms follow the SMILES beside them. X1 = CC(C)C[C@H](N[*:1])[C@@H](O)C[C@H](C(=O)[*:2])C(C)C

Target: Human immunodeficiency virus type 1 protease (Human immunodeficiency virus 1, UniProt Q72874)
Assay: Binding affinity against HIV-1 aspartic proteinase was determined

Compound: CCCC[C@@H](CN[C@@H](CCCC)C(=O)N[C@@H](CCC(N)=O)C(=O)N[C@@H](CCCNC(=N)N)C(N)=O)NC(=O)[C@@H](NC(=O)[C@@H](NC(C)=O)[C@@H](C)O)[C@@H](C)CC
- Ki: 780 nM

Compound: CC[C@H](C)[C@H](NC(=O)[C@@H](C[C@H](O)[C@H](CC(C)C)NC(=O)[C@H](CC(N)=O)NC(=O)[C@H](CCC(N)=O)NC(=O)[C@H](CO)NC(=O)[C@@H](N)C(C)C)C(C)C)C(=O)N[C@H](C(=O)O)C(C)C (H-VSQN[X1]IV-OH)
- Ki: < 1 nM
